The structures appear in SMILES notation.

As for `O=C(NO)[C@H]1CN(c2ccc(N3CCOCC3)c(F)c2)C(=O)O1`, the melting point was in the range of 141 to 143 °C.
On to `Cc1onc(NS(=O)(=O)c2cccc([N+](=O)[O-])c2)c1Br`, for which the melting point was in the range of 137 to 139 °C.
The molecule `CC1CCC2(C)C(=CCC3C4CC(C)C(=O)C4(C)CCC32)C1` (centres undefined) showed a melting point of 109 to 110 °C.
Molecule `O=C1Nc2ccccc2Nc2ccccc21` had a melting point of 121 to 123 °C.
`CCCCCCCCCCCCCCOC(=O)NO` registered a melting point of 64 to 66 °C.
For `C=CCNc1c(C(=O)OCC)cnc2cn(C(C)(C)OC)nc12`, the melting point was in the range of 102 to 103 °C.
Take `CCCCC(=O)Nc1c(N)ccnc1Cl`: the melting point was determined as 163 °C.
`COc1cccc(Nc2nc(N)nc3[nH]c4ccccc4c23)c1` yielded a melting point of 225 to 226 °C.
Then `Fc1ccccc1-c1nnc(-c2ccccc2C(F)(F)F)o1`, with 68 to 69 °C.
Molecule `COc1ccc2c(c1)C(=O)CC1(CCN(c3cc(=O)n(C)c(=O)n3C)CC1)O2` yielded a melting point of 202 to 203 °C.
Consider `CCCc1oc(-c2ccccc2)nc1COc1ccc(COc2ccccc2CC(=O)O)cc1`, for which the melting point is 129 to 130 °C.
Take `O=C(O)Cc1cc(Cl)ccc1Oc1ccccc1`: the melting point was 119 to 123 °C.
Then `Cn1ncc2c(c1=O)C(Cc1ccccc1)NCCS2` (centres undefined), with 112 to 114 °C.
Regarding `COC1=C(Cl)C(=O)C(OC)=C(CCCCCC2=C(OC)C(=O)C(Cl)=C(OC)C2=O)C1=O`, the melting point fell in the range of 79.8 to 80 °C.
The value for `O=C1c2ccccc2C(=O)N1CC(=O)N1c2ccccc2N(Cc2cccc(OCc3ccccc3)c2)C(=O)[C@H]2CCC[C@H]21` (relative stereo) was 196 to 198 °C; that for `CCCCCCCCc1c(N)nc(-n2cccn2)nc1CC` was 62 to 63 °C; that for `CNc1cc(Oc2nn(C)c(C(F)(F)F)c2Cl)ccc1C#N` was 115 to 117 °C.
With `O=C1Cn2c(c(Cl)c3ccccc32)-c2cc(Cl)ccc2N1`, the melting point was 267 to 271 °C.
With `CNC(=O)c1ccc2c(c1)OC(c1ccccc1)(c1ccccc1)O2`, the melting point was in the range of 144 to 145 °C.
Molecule `Fc1ccc(Nc2nc(N/N=C/c3cccc4ccccc34)nc(N3CCOCC3)n2)cc1` yielded a melting point of 220 °C.
`COc1ccccc1Nc1ncc2cc(-c3c(Cl)cccc3Cl)c(=O)n(C)c2n1` yielded a melting point of 200 to 201 °C.
`Nc1ccc(C(=O)CCCCl)cc1[N+](=O)[O-]` gave a melting point of 150 °C.
`CCN1CCN(Cn2nc(-c3ccsc3)c3c2-c2ccccc2C3)CC1` registered a melting point of 111 to 112 °C.
As for `O=C(O)c1cc([N+](=O)[O-])cc(Br)n1`, the melting point lay in the range of 172 to 173 °C.
Molecule `NC(=O)CCn1ccn(C2CCc3ccccc3C2)c1=S` (centres undefined) yielded a melting point of 180 to 181 °C.
For the molecule `COc1cc2c(cc1OC)CCCCC(C(=O)N1CCN(C(=O)c3cc(OC)c(OC)c(OC)c3)CC1)=C2`, the melting point lay in the range of 170 to 171 °C.
Then `O=[N+]([O-])C=C1SCCCN1Cc1cccnc1`, with 143 to 146 °C; and `CNC(=O)c1cccc(Nc2ncnc3[nH]cc(C(=O)c4ccccc4C)c23)c1`, with greater than 300 °C; and `CCCCn1c(C)c(C(=O)Nc2c(CC)cccc2CC)c(=O)c(Br)c1CC`, with 132 to 134 °C.
In the case of `Cc1cccc(C)c1NC(=O)C=CC(=O)c1ccc(Cl)c(Cl)c1`, the melting point was 213 to 215 °C.
The value for `CC(C)(CCCCCCCCCCC(C)(C)C(O)C(=O)O)C(O)C(=O)O` (centres undefined) was 87 to 100 °C; that for `CC(C)Cn1c(=O)n(C)c(=O)c2c(Sc3nccs3)c(C(=O)c3ccnc4ccccc34)sc21` was 167 to 168 °C; that for `CC(=O)OC1CSC(Oc2ccc(-c3cccnc3Cl)nc2)C(OC(C)=O)C1OC(C)=O` (centres undefined) was 180 °C.
`Clc1ccc2scc(Br)c2c1` displayed a melting point of 85 to 86 °C.
In the case of `CC(C)C1(C)NC(c2ncccc2CO)=NC1=O` (centres undefined), the melting point lay in the range of 145 to 149 °C.
`O=C(c1cc(Cc2ccccc2)cc(Cn2ccnc2)c1)c1cc(Cl)c2cccnc2c1O`: the melting point is 148 to 150 °C.
As for `COc1cc(/C=C/CCO)ccc1OCc1ccccc1`, the melting point was 57 to 61 °C.
With `CCCCOC(=O)[C@H]1CN(c2cc(F)c(N3CCSCC3)c(F)c2)C(=O)O1`, the melting point was in the range of 102 to 103 °C.
In the case of `O=C(CCl)NOC(c1ccccc1)c1ccccc1`, the melting point lay in the range of 115 to 117 °C.
Regarding `O=C(Nc1cc(Cl)c(F)cc1-c1ccccc1)c1cccnc1Cl`, the melting point is 131 to 136 °C.
`C/C(=C\c1ccc(OCC(=O)O)cc1)c1ccc2c(c1)C(C)(C)CCC2(C)C` yielded a melting point of 152 to 154 °C.
The molecule `COC[C@@H](O)[C@@H](O)[C@H](OC)[C@@H](O)C=O` gave a melting point of 113 to 115 °C.
`O=C(CBr)c1ccc2oc3ccc(C(=O)CBr)cc3c(=O)c2c1` gave a melting point of 209 to 210 °C.
For `OC1CC2c3ccccc3CCN2C2CCCCC12` (centres undefined), the melting point is 140 to 142 °C.
Molecule `CCCCCCCCCCNC(=O)C1CSC(c2cccnc2)N1` (centres undefined) registered a melting point of 88 °C.
Then `O=[N+]([O-])c1ccccc1Cc1n[nH]c(S)n1`, with 239 to 241 °C; and `CCCC(CO)(CCC)N(OC(C)c1ccccc1)C(C)(C)CO` (centres undefined), with 88 to 92 °C.
For the molecule `CC(C)n1cc(-c2nn(-c3cccc(C(F)(F)F)c3)ccc2=O)c(-c2ccccc2)n1`, the melting point lay within 138 to 140 °C.
Then `COC(=O)Cc1ccc(CNC(=O)C2Cc3ccccc3N2S(=O)(=O)c2ccc(-c3ccc(F)cc3C)cc2)cc1` (centres undefined), with 71 to 75 °C; and `CC(C)c1cccc(C(C)C)c1NC(=O)CNC(c1ccccc1)c1ccc(O)cc1` (centres undefined), with 190 to 192 °C.
`COc1ccc2c(c1)c(Cc1cc(=O)n(-c3cnc4ccccc4n3)[nH]1)c(C)n2C(=O)c1ccc(Cl)cc1` had a melting point of 231 to 233 °C.
In turn, `Clc1ncnc2c1N(C1CC=CC1)CN2` showed a melting point of 124 to 126 °C.
Consider `CCn1c(=O)c2c(nc(C=Cc3cccc(OC)c3O)n2C)n(CC)c1=O`, for which the melting point lay in the range of 225 to 226 °C.
Molecule `CC1(C)Oc2ccc(S(=O)(=O)C(F)(F)F)cc2[C@@H](N2Cc3ccccc3C2=O)[C@@H]1O[N+](=O)[O-]` (relative stereo) yielded a melting point of 190 °C.
Consider `CCOC(=O)C1=C2CCCN2C(C)=C(C(=O)OC)C1c1cccc([N+](=O)[O-])c1` (centres undefined), for which the melting point stood at 120 °C.
In the case of `CC(C)(C)OC(=O)N[C@@H](Cc1cc(F)cc(F)c1)[C@H]1CO1`, the melting point worked out at 99 °C.
Molecule `Nc1sc2c(c1C(=O)c1ccccc1)CCN(CCc1ccc([N+](=O)[O-])cc1)C2` registered a melting point of 89 to 91 °C.
As to `O=C(O)CCC#Cc1ccccc1Br`, the melting point lay within 87 to 91 °C.
As for `CC(=O)CC(O)c1ccc([N+](=O)[O-])cc1` (centres undefined), the melting point turned out to be 62 °C.
In the case of `Cc1cccc(N2CCN(CCc3ccc(-c4cccc(N)n4)cc3)CC2)c1`, the melting point fell in the range of 158 to 160 °C.
The value for `CCc1nc(Cc2ccc(NC(=O)/C=C/c3cnn(C)c3-c3ccc(F)cc3)cc2)cs1` was 178 to 179 °C; that for `O=C1OCc2c(Cl)cccc21` was 80 to 82 °C; that for `COC1(OC)C(=O)Nc2ccc(C(=O)c3ccc(Cl)cc3)cc21` was 170 °C.
Consider `COC(=O)CCCCCOc1ccc(NC(=O)CO)cc1`, for which the melting point fell in the range of 91.5 to 94 °C.
As for `O=C(Oc1ccccc1)c1cc(Cl)c2ccccc2c1O`, the melting point lay in the range of 102 to 104 °C.
`CCOC(=O)N(C)c1cccc(-c2ccc3nnc(C)n3n2)c1` yielded a melting point of 146 to 149 °C.
`CNCC(O)COc1cc(-c2ccc(C)cc2)nc2cc(C)ccc12` (racemic) gave a melting point of 146 to 150 °C.
The value for `COc1cc(-c2cn(C3CCCC3)c3ncnc(N)c23)ccc1NS(=O)(=O)c1ccccc1` was 113 to 115 °C.
Consider `Nc1cc(Sc2ccc3c(C(=O)Nc4ccc(F)c(C(F)(F)F)c4)cccc3c2)ncn1`, for which the melting point was determined as 221 °C.
The molecule `CCCCCCCNC(=O)Nc1ccccc1C(=O)Nc1ccc(CCCCCCC)cc1` displayed a melting point of 155 to 157 °C.
Take `Cc1c(O)cccc1C(=O)N[C@@H](Cc1ccccc1)[C@H](O)C(=O)N1CSC(C)(C)[C@H]1C(=O)N[C@@H](C)c1ccccc1`: the melting point was 114 to 115 °C.
Regarding `CCOP(=O)(OCC)c1ccc(NC(=O)CCc2oc(-c3ccccc3)nc2-c2ccc(Cl)cc2)cc1`, the melting point lay within 139 to 140 °C.
Then `CCCN(CCC)C(=O)Cc1c(-c2ccccc2)nn2cccnc12`, with 103 to 105 °C; and `OCc1cccnc1N1CCN(c2nc3cc(C(F)(F)F)cc(Cl)c3[nH]2)CC1`, with 252 °C; and `COc1ccc(C(=O)c2[nH]c(=O)[nH]c2COC(C)=O)cc1`, with 155 to 162 °C.
The molecule `COc1c(N2CC(=NO)C3(CC3)C2)c(F)cc2c(=O)c(C(=O)O)cn(C3CC3)c12` came in with a melting point of 233 to 235 °C.
The molecule `CNc1cc(Cl)cc(C)n1` had a melting point of 69 to 70 °C.
Regarding `CC(OCCc1ccc(-c2ccc(Cl)cc2)cc1)C(=O)O` (centres undefined), the melting point is 90 to 92 °C.
Regarding `N#CCCNC(=O)c1cccc(-c2ccc3c(c2)N(CCc2cccc(C(F)(F)F)c2)CC3)c1`, the melting point fell in the range of 197 to 198 °C.
`COc1ccc(C2=Nc3ccc(N4CCCC4)cc3C(=O)C2)cc1` registered a melting point of 312 to 313 °C.
Turning to `Cc1nc(COc2ccc3nc(N)c4nc5n(c4c3c2)C(C)COC5)cs1` (centres undefined), the melting point fell in the range of 105 to 107 °C.
Then `Cc1cc(-c2ccc(O)nc2)cc(C=O)c1N`, with 231 to 234 °C; and `CCCc1ccc2oc(Cc3ccc(O)cc3)c(C)c2c1O`, with 117 to 120 °C.
`Cn1cc(C(=O)NCc2ccc(Cl)cc2)c(=O)c2cc(CC3CCOCC3)cc(I)c21`: the melting point lay within 175 to 177 °C.
Then `N#Cc1ccc(C=O)c(SCCc2ccccc2)c1`, with 89 °C.
For `COC(=O)[C@H](C)NC(=O)CCCN(C(=O)c1ccc(Cl)cc1)c1c(C)cccc1C`, the melting point was in the range of 91 to 92 °C.
For `CC(NC(=S)Nc1ccc(NCCN)nc1)C(C)(C)C` (centres undefined), the melting point lay within 138 to 140 °C.
Then `Cc1ccccc1-c1c(NC(=O)OC(C)(C)C)c(=O)oc2cc3c(cc12)CCC3`, with 154 to 155 °C; and `NC(=O)c1sc2nccc(N3CCOCC3)c2c1N`, with 232 to 234 °C.

(Values after a melting point compilation (Tetko et al.; mined from patent text by program, amines drawn as free bases though some values may be those of a salt).)
